According to patent US20160207930A1 (LEO PHARMA A/S, priority 2013, published 2016):

Key:
[1] = Hepatic intrinsic clearance following incubation in human liver microsomes; format: in vitro ADME; conditions: 0.5 μM test compound, NADPH, 0-30 min, scaled to g liver
Description: Hepatic Extraction Ratio from Hepatic Intrinsic Clearance Following Incubation in Human Liver Microsomes
The general procedure consists of an automated incubation system and LC-MS/MS analysis with human liver microsomes. Human liver microsomes are thawed rapidly in a waterbath at 37° C. and kept on ice until use. The human liver microsomes are diluted with 50 mM potassium phosphate buffer pH 7.4 to a protein concentration of 0.55 mg/mL. Test compounds and positive controls (Verapamil and Dextromethorphan, positive controls for CYP3A4 for CYP2D6 isoforms, respectively) are dissolved in methanol (or other appropriate solvent, if necessary) in order to obtain a 5 mM solution which is further diluted to the concentration of 50 μM. The stock solutions are prepared immediately before the test.
5 μL of 50 μM test compounds and controls are added to 445 μL-of the 0.55 mg/mL microsomes solution and the incubation mixture are pre-warmed at 37° C. for 5 minutes. The incubation reactions are initiated by adding 50 μL of pre-warmed NADPH regenerating system to the incubation mixtures. 50 μL-aliquots will be taken from the incubation mixtures at: 0, 3, 6, 9, 15 and 30 minutes and the reactions are stopped by adding 100 μL of ACN containing Rolipram, used as generic Internal Standard (IS). Samples are then diluted with 120 μL of Milli-Q water and centrifuged at 3000 rpm for 10 minutes, prior the LC-MS/MS analysis.
The integrated peak areas for test compounds at the selected time points are divided by the respective peak areas of the IS and the percent of parent remaining is calculated by normalizing the peak area ratio of parent to IS at 0 min. Observed rate constant (kobs) for parent degradation is calculated by determining the slope of the line of the graph of the natural log of percentage parent remaining versus time of incubation. From the rate of depletion (min−1) and volume of the incubation (mL), clearance is estimated. This is scaled for the protein in the incubation relative to that in the intact liver, for all species (mL/min/g liver).
Values for the Human in vitro Clint are expressed as mL/min/g liver.
Assuming a liver weight of 25.7 g/kg and a liver blood flow of 20.7 mL/min/kg, the hepatic extraction ratio, Eh, can be derived from the Human in vitro Clint:
E.g. a Human in vitro Clint of 2.4 mL/min/g liver corresponds to a hepatic extraction ratio of 75%.
Some compounds of the present invention were tested according to example 101.

NK1 Receptor = biological target: T1, NK1 Receptor (Homo sapiens, UniProt P25103); experiment: NK1 receptor mediated intracellular [Ca2+] mobilization in U251 MG cells using FLIPR; format: cell-based; conditions: antagonism of Substance P (EC80), Fluo-4, read-out: NK1R mediated intracellular [Ca^2+] mobilization IC 50
T1 construct: Measurement of NK1 Receptor Mediated Intracellular [Ca^2+]; Mobilization in U251 MG Cells Using FLIPR; endogenous in cells; host or cells: U251 MG cells
Description: Measurement of NK1 Receptor Mediated Intracellular [Ca^2+] Mobilization in U251 MG Cells Using FLIPR
U251 MG cells were seeded into black walled clear-bottom 384-well plates (Greiner Bio-One GmbH, Frickenhausen, Germany) at a density of 15,000 cells/well in 50 μl culture medium and cultured overnight in a 37° C. 5% CO2 incubator. The cells were then loaded with the calcium sensitive dye Fluo-4 (Invitrogen) at 1 μM in buffer, containing 0.04% Pluronic F-127 (Sigma-Aldrich), and 2.5 mM probenecid (Sigma-Aldrich) for 60 min in a humidified atmosphere of 5% CO2. Thereafter, cells were washed three times in washing buffer containing 20 mM HEPES and 2.5 mM probenecid pH 7.3. Serial dilutions of test compounds in assay buffer containing 2% dimethyl sulfoxide (final concentration in the cell plate is 0.5% DMSO) and/or agonist were then automatically pipetted into each test well, and the peak fluorescence intensity was recorded (lex, 488 nm; lem, 540 nm) by the FLIPR instrument (Molecular Devices) for approximately 5 min. To measure antagonist potency, cell plates were first incubated with the test compound and intracellular fluorescence recorded for 5 minutes to check a potential agonist effect of the test compound. Cell plates were quickly removed from the FLIPR instrument and incubated for additional 10 minutes at 37° C. before being moved back to the FLIPR instrument for Substance P (EC80) addition. The response was measured as the peak relative fluorescence change after agonist addition.
Compound relative %-effect was normalized to the maximal response evoked by 100 nM Aprepitant in presence of the EC80 of Substance P and the antagonist potency determined by non-linear regression using GraphPad Prism (version 5) or the four-parameter logistic model in XLfit (IDBS, Guilford, UK) for Microsoft Excel (Microsoft, Redmond, Wash.). The IC50 value is defined as the molar concentration of a test compound that produces a response midway between the fitted top and the fitted bottom. pIC50=−log IC50
Formula is listed as follows:
Fit (% Effect calculated)=(A+((B−A)/(1+((C/X)̂D)))) • A: bottom value • B: top value • C: test compound concentration • X: Relative IC50 • D: Hill slope coefficient
Ref: Sullivan E, Tucker E M, and Dale I L. Measurement of [Ca^2+] using the Fluorometric Imaging Plate Reader (FLIPR). Methods Mol Biol 114:125-133, 1999.
Compounds of the present invention were tested according to example 100.

T1 sequence (P25103 whole entry): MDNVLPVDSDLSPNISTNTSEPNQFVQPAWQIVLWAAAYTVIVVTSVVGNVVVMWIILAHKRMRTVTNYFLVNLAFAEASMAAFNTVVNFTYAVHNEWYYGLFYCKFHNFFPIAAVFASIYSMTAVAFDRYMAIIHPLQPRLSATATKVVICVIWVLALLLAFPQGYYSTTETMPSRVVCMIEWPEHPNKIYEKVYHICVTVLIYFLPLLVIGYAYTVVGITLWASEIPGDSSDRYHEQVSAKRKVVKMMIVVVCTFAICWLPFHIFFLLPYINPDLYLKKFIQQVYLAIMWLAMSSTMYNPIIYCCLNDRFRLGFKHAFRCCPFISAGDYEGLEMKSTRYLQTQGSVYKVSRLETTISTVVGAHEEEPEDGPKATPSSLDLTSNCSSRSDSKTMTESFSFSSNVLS

Human in vitro Clint [1]	IC50 (NK1 Receptor)	SMILES
>200 mL/min/g	7360 pM	Cc1cc(OCc2ccccc2)ccc1[C@H]1[C@@H]2CCC(=O)N2CCN1C(=O)N(C)[C@H](C)c1cc(C(F)(F)F)cc(C(F)(F)F)c1 [Compound 26, (1S,8aS)-1-(4-(benzyloxy)-2-methylphenyl)-N—((R)-1-(3,5-bis(trifluoromethyl)phenyl)ethyl)-N-methyl-6-oxohexahydropyrrolo[1,2-a]pyrazine-2(1H)-carboxamide]
>200 mL/min/g	64 pM	Cc1cc(O)ccc1[C@H]1[C@@H]2CCC(=O)N2CCN1C(=O)N(C)[C@H](C)c1cc(C(F)(F)F)cc(C(F)(F)F)c1 [Compound 27, (1S,8aS)—N—((R)-1-(3,5-bis(trifluoromethyl)phenyl)ethyl)-1-(4-hydroxy-2-methylphenyl)-N-methyl-6-oxohexahydropyrrolo[1,2-a]pyrazine-2(1H)-carboxamide]
>200 mL/min/g	110 pM	CCc1cc([C@@H](C)N(C)C(=O)N2CCN3C(=O)CC[C@H]3[C@@H]2c2ccc(O)cc2C)cc(C(F)(F)F)c1 [Compound 28, (1S,8aS)—N—((R)-1-(3-ethyl-5-(trifluoromethyl)phenyl)ethyl)-1-(4-hydroxy-2-methylphenyl)-N-methyl-6-oxohexahydropyrrolo[1,2-a]pyrazine-2(1H)-carboxamide]
>200 mL/min/g	114 pM	COc1ccc([C@H]2[C@@H]3CC(CCO)(CCO)C(=O)N3CCN2C(=O)N(C)[C@H](C)c2cc(C(F)(F)F)cc(C(F)(F)F)c2)c(C)c1 [Compound 29, (1S,8aS)—N—((R)-1-(3,5-bis(trifluoromethyl)phenyl)ethyl)-7,7-bis(2-hydroxyethyl)-1-(4-methoxy-2-methylphenyl)-N-methyl-6-oxohexahydropyrrolo[1,2-a]pyrazine-2(1H)-carboxamide]
18 mL/min/g	116 pM	Cc1cc(O)ccc1[C@H]1[C@@H]2CC(CCO)(CCO)C(=O)N2CCN1C(=O)N(C)[C@H](C)c1cc(C(F)(F)F)cc(C(F)(F)F)c1 [Compound 30, (1S,8aS)—N—((R)-1-(3,5-bis(trifluoromethyl)phenyl)ethyl)-1-(4-hydroxy-2-methylphenyl)-7,7-bis(2-hydroxyethyl)-N-methyl-6-oxo-hexahydropyrrolo[1,2-a]pyrazine-2(1H)-carboxamide]
30 mL/min/g	80 pM	Cc1ccc(C)c([C@H]2[C@@H]3CC(CCO)(CCO)C(=O)N3CCN2C(=O)N(C)[C@H](C)c2cc(C(F)(F)F)cc(C(F)(F)F)c2)c1 [Compound 37, (1S,8aS)—N—((R)-1-(3,5-bis(trifluoromethyl)phenyl)ethyl)-1-(2,5-dimethylphenyl)-7,7-bis(2-hydroxyethyl)-N-methyl-6-oxo-hexahydropyrrolo[1,2-a]pyrazine-2(1H)-carboxamide]

The remaining lines, values behind:

SMILES	Human in vitro Clint [1]	IC50 (NK1 Receptor)
Cc1cc(F)ccc1[C@H]1[C@@H]2CC(CCO)(CCO)C(=O)N2CCN1C(=O)N(C)[C@H](C)c1cc(C(C)C)cc(C(F)(F)F)c1 [Compound 25, (1S,8aS)-1-(4-fluoro-2-methylphenyl)-7,7-bis(2-hydroxyethyl)-N—((R)-1-(3-isopropyl-5-(trifluoromethyl)phenyl)ethyl)-N-methyl-6-oxohexahydropyrrolo[1,2-a]pyrazine-2(1H)-carboxamide]	128 mL/min/g	80 pM
CCc1cc([C@@H](C)N(C)C(=O)N2CCN3C(=O)C(CCO)(CCO)C[C@H]3[C@@H]2c2ccc(O)cc2C)cc(C(F)(F)F)c1 [Compound 31, (1S,8aS)—N—((R)-1-(3-ethyl-5-(trifluoromethyl)phenyl)ethyl)-1-(4-hydroxy-2-methylphenyl)-7,7-bis(2-hydroxyethyl)-N-methyl-6-oxohexahydropyrrolo[1,2-a]pyrazine-2(1H)-carboxamide]	61 mL/min/g	59 pM
CCc1cc([C@@H](C)N(C)C(=O)N2CCN3C(=O)CC[C@H]3[C@@H]2c2ccccc2C)nc(C(F)(F)F)c1 [Compound 32, (1S,8aS)—N—((R)-1-(4-ethyl-6-(trifluoromethyl)pyridin-2-yl)ethyl)-N-methyl-6-oxo-1-o-tolylhexahydropyrrolo[1,2-a]pyrazine-2(1H)-carboxamide]	>200 mL/min/g	660 pM
Cc1cc(CN(C)C(=O)N2CCN3C(=O)C(CCO)(CCO)C[C@H]3[C@@H]2c2ccccc2C)nc(C(F)(F)F)c1 [Compound 33, (1S,8aS)-7,7-bis(2-hydroxyethyl)-N-methyl-N-((4-methyl-6-(trifluoromethyl)pyridin-2-yl)methyl)-6-oxo-1-o-tolylhexahydropyrrolo[1,2-a]pyrazine-2(1H)-carboxamide]	>200 mL/min/g	139 pM
Cc1ccc([C@H]2[C@@H]3CC(CCO)(CCO)C(=O)N3CCN2C(=O)N(C)[C@H](C)c2cc(Cl)cc(C(F)(F)F)c2)c(C)c1 [Compound 34, (1S,8aS)—N—((R)-1-(3-chloro-5-(trifluoromethyl)phenyl)ethyl)-1-(2,4-dimethylphenyl)-7,7-bis(2-hydroxyethyl)-N-methyl-6-oxo-hexahydropyrrolo[1,2-a]pyrazine-2(1H)-carboxamide]	>200 mL/min/g	54 pM
Cc1ccc([C@H]2[C@@H]3CC(CCO)(CCO)C(=O)N3CCN2C(=O)N(C)[C@H](C)c2cc(C(C)C)cc(C(F)(F)F)c2)c(C)c1 [Compound 35, (1S,8aS)-1-(2,4-dimethylphenyl)-7,7-bis(2-hydroxyethyl)-N—((R)-1-(3-isopropyl-5-(trifluoromethyl)phenyl)ethyl)-N-methyl-6-oxohexahydropyrrolo[1,2-a]pyrazine-2(1H)-carboxamide]	>200 mL/min/g	141 pM
COc1ccccc1[C@H]1[C@@H]2CC(CCO)(CCO)C(=O)N2CCN1C(=O)N(C)[C@H](C)c1cc(C(F)(F)F)cc(C(F)(F)F)c1 [Compound 36, (1S,8aS)—N—((R)-1-(3,5-bis(trifluoromethyl)phenyl)ethyl)-7,7-bis(2-hydroxyethyl)-1-(2-methoxyphenyl)-N-methyl-6-oxo-hexahydropyrrolo[1,2-a]pyrazine-2(1H)-carboxamide]	147 mL/min/g	811 pM
Cc1ccc(C)c([C@H]2[C@@H]3CC(CCO)(CCO)C(=O)N3CCN2C(=O)N(C)[C@H](C)c2cc(C(C)C)cc(C(F)(F)F)c2)c1 [Compound 38, (1S,8aS)-1-(2,5-dimethylphenyl)-7,7-bis(2-hydroxyethyl)-N—((R)-1-(3-isopropyl-5-(trifluoromethyl)phenyl)ethyl)-N-methyl-6-oxohexahydropyrrolo[1,2-a]pyrazine-2(1H)-carboxamide]	157 mL/min/g	118 pM
